The results in this text go back to ChEMBL document CHEMBL3351587, “Revised stereochemistry of ficifolidione and its biological activities against insects and cells” (J Nat Prod, 2015).

Assay [1] can be described thus: Cytotoxicity against Sf9 cells after 48 hrs by WST-8 assay. Format: functional, cell-based. The conditions noted are these: Spodoptera frugiperda, Sf9, 48 h.
Assay [2] has as its system Colon 26. The assay is described as follows: Cytotoxicity against mouse Colon 26 cells after 48 hrs by WST-8 assay. Format: functional, cell-based. Particulars: Colon 26, 48 h.
Assay [3] can be described thus: Cytotoxicity against human HL60 cells after 48 hrs by WST-8 assay. Format: functional, cell-based. Particulars: HL-60, 48 h.
In the next assay the test system is Vero. The assay is described as follows: Cytotoxicity against african green monkey Vero cells after 48 hrs by WST-8 assay. Particulars: Chlorocebus sabaeus. Format: functional, cell-based.
The subject of the next assay is Musca domestica. The assay is described as follows: Insecticidal activity against adult housefly at 44 ug/insect administered topically. Format: functional, organism-based.
In assay [4] the test system is Culex pipiens. The assay is described as follows: Insecticidal activity against mosquito larvae at 1.2 ug/insect administered as injection. Format: functional, organism-based.
In assay [5] the test system is Culex pipiens. The assay is described as follows: Insecticidal activity against mosquito larvae at 50 uM. Format: functional, organism-based.
The test system of assay [6] is Spodoptera litura. The assay is described as follows: Insecticidal activity against cutworms at 4 mg/disk by leaf dik assay. Format: functional, organism-based.
Assay [7] concerns Spodoptera litura. The assay is described as follows: Insecticidal activity against cutworms assessed as growth inhibition at 21 ug, po for a day followed by rearing on normal diet measured up to 7 days. Format: functional, organism-based.
Assay [8] deals with HL-60. The assay is described as follows: Induction of apoptosis in human HL60 cells assessed as DNA fragmentation at 100 uM after 4 to 6 hrs by electrophoresis. Format: functional, cell-based.
Assay [9] has as its system HL-60. The assay is described as follows: Induction of apoptosis in human HL60 cells assessed as activation of caspase 3 at 100 uM after 4 to 6 hrs by immunoblotiing. Format: functional, cell-based.
Assay [10] relates to Spodoptera litura. The assay is described as follows: Insecticidal activity against cutworms assessed as number of weight reduced larvae at 21 ug, po for a day followed by rearing on normal diet measured on day 1 (reference value: 10 no_unit). Format: functional.
The test system of assay [11] is Spodoptera litura. The assay is described as follows: Insecticidal activity against cutworms assessed as number of weight reduced larvae at 21 ug, po for a day followed by rearing on normal diet measured on day 2 (reference value: 10 no_unit). Format: functional.
The test system of assay [12] is Spodoptera litura. The assay is described as follows: Insecticidal activity against cutworms assessed as number of weight reduced larvae at 21 ug, po for a day followed by rearing on normal diet measured on day 3 (reference value: 10 no_unit). Format: functional.
Assay [13] has as its system Spodoptera litura. The assay is described as follows: Insecticidal activity against cutworms assessed as number of weight reduced larvae at 21 ug, po for a day followed by rearing on normal diet measured on day 4 (reference value: 10 no_unit). Format: functional.
Assay [14] relates to Spodoptera litura. The assay is described as follows: Insecticidal activity against cutworms assessed as number of weight reduced larvae at 21 ug, po for a day followed by rearing on normal diet measured on day 5 (reference value: 8.7 no_unit). Format: functional.
The test system of assay [15] is Spodoptera litura. The assay is described as follows: Insecticidal activity against cutworms assessed as number of weight reduced larvae at 21 ug, po for a day followed by rearing on normal diet measured on day 6 (reference value: 6.7 no_unit). Format: functional.
Assay [16] concerns Spodoptera litura. The assay is described as follows: Insecticidal activity against cutworms assessed as number of weight reduced larvae at 21 ug, po for a day followed by rearing on normal diet measured on day 7 (reference value: 6.3 no_unit). Format: functional.
Assay [17] concerns Colon 26. The assay is described as follows: Cytotoxicity against mouse Colon 26 cells at 100 uM after 48 hrs by WST-8 assay. Format: functional, cell-based.

Active and inactive are the calls of the source. The rule behind the calls is not given here.

As to `CCC[C@H]1C[C@@]2(CC[C@H]3C[C@@H]2C3(C)C)OC2=C1C(=O)C(C)(C)C(=O)C2(C)C`, the IC50 in assay [1] stood at 30.1 µM; with Colon 26 [2], 12.6 µM; in [3] it was 19.4 µM; in the assay with Vero it was 14.4 µM.
Turning to `CC(C)C[C@@H]1C[C@@]2(CC[C@H]3C[C@@H]2C3(C)C)OC2=C1C(=O)C(C)(C)C(=O)C2(C)C`, the result with Musca domestica, in the assay with Culex pipiens [4] and in the assay with Culex pipiens [5] was inactive. The IC50 in assay [1] stood at 63.5 µM; in the assay with Colon 26 [2] it was 13.6 µM; in assay [3], 3.67 µM; in the assay on Vero it was 8.39 µM.
`CC(C)C[C@H]1C[C@@]2(CC[C@H]3C[C@@H]2C3(C)C)OC2=C1C(=O)C(C)(C)C(=O)C2(C)C`: the outcome in the assay on Musca domestica, in the assay on Culex pipiens [4], with Spodoptera litura [6] and with Culex pipiens [5] was inactive. The “growth inhibition (GI)” value in the assay with Spodoptera litura [7] is “Active”. Further, the IC50 in assay [1] is 32.1 µM; in the assay on Colon 26 [2], 8.96 µM; in [3], 2.9 µM; in the assay with Vero, 12.4 µM. Besides, the outcome with HL-60 [8] and in the assay with HL-60 [9] was Active. Besides, the Activity amounted to 10 with Spodoptera litura [10]; 10 in the assay with Spodoptera litura [11]; 9.7 in the assay with Spodoptera litura [12]; 9 in the assay with Spodoptera litura [13]; 8.7 in the assay with Spodoptera litura [14]; 7.3 in the assay with Spodoptera litura [15]. The Activity with Spodoptera litura [16] stood at 7.
Consider `CCC[C@@H]1C[C@@]2(CC[C@H]3C[C@@H]2C3(C)C)OC2=C1C(=O)C(C)(C)C(=O)C2(C)C`, for which the IC50 in assay [1] was determined as 99.2 µM; with Colon 26 [2], 14.2 µM; in assay [3] it was 23.5 µM; with Vero, 21.4 µM.
Consider `C=C1CC[C@H]2C[C@@H]1C2(C)C`, for which the outcome with Colon 26 [17] was inactive.
The same measure, in the same setting: next, `CC1(C)C(=O)CC(=O)C(C)(C)C1=O`: “inactive”.
